Data: ChEMBL document CHEMBL5352415, “Discovery of new macrophage M2 polarization modulators as multiple sclerosis treatment agents that enable the inflammation microenvironment remodeling” (Eur J Med Chem, 2022)

Tests used:
[1] = molecular target: RAC-alpha serine/threonine-protein kinase (Homo sapiens, UniProt P31749); experiment: Inhibition of AKT1 (unknown origin); assay type: binding
[2] = Induction of M2 macrophage polarization in C57BL/6 mouse BMDM cells assessed as fold increase in Arg1 gene level at 1 uM incubated for 24 hrs by qRT-PCR analysis; assay type: functional
[3] = Induction of M2 macrophage polarization in C57BL/6 mouse BMDM cells assessed as fold increase in Ym1 gene level at 1 uM incubated for 24 hrs by qRT-PCR analysis; assay type: functional
[4] = molecular target: T1, RAC-alpha serine/threonine-protein kinase (Mus musculus, UniProt P31750); experiment: Inhibition of Akt phosphorylation at Ser473 in C57BL/6 mouse BMDM cells at 50 to 500 nM incubated for 24 hrs by Western blot analysis; assay type: cell-based; conditions: 0.5 µM, dose 50-500 nM
T1 sequence (P31750 whole entry): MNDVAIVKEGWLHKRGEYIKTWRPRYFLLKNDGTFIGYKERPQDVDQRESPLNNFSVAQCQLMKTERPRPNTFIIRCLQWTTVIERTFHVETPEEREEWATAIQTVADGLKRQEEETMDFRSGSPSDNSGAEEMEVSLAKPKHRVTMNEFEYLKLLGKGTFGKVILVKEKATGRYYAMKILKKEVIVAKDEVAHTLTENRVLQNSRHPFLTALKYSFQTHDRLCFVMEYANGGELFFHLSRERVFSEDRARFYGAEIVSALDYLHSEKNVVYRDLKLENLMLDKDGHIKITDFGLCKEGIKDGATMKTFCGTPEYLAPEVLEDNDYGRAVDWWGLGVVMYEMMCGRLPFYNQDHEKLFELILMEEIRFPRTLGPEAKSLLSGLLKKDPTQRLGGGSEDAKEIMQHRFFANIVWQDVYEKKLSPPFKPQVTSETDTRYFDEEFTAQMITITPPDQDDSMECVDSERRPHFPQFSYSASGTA

[5] = molecular target: T1, RAC-alpha serine/threonine-protein kinase; experiment: Inhibition of LPS-induced Akt phosphorylation at Ser473 in C57BL/6 mouse BMDM cells at 50 to 500 nM incubated for 24 hrs by Western blot analysis; assay type: cell-based; conditions: 0.5 µM, dose 50-500 nM
[6] = molecular target: RAC-beta serine/threonine-protein kinase (Homo sapiens, UniProt P31751); experiment: Inhibition of AKT2 (unknown origin); assay type: binding
Sequence of RAC-beta serine/threonine-protein kinase (P31751 whole entry): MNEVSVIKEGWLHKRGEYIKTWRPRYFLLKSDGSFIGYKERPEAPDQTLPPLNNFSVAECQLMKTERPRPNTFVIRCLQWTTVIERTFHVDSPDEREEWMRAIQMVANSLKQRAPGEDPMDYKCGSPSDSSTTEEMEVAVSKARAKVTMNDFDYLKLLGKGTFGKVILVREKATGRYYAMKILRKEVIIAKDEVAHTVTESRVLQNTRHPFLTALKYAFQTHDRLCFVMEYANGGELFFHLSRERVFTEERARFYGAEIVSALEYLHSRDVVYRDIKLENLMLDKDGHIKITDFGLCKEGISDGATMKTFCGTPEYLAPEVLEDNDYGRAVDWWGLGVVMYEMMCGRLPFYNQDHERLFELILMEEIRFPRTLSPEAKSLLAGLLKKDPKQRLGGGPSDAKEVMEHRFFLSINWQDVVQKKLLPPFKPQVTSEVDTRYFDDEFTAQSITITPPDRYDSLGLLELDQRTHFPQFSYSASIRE

[7] = Inhibition of M1 macrophage polarization in C57BL/6 mouse BMDM cells assessed as fold decrease in Inos gene level at 1 uM incubated for 24 hrs by qRT-PCR analysis (reference value: 1); assay type: functional
[8] = Inhibition of LPS-induced M1 macrophage polarization in C57BL/6 mouse BMDM cells assessed as fold decrease in Inos gene level at 1 uM preincubated with LPS for 24 hrs followed by compound addition and measured after 24 hrs by qRT-PCR analysis (reference value: 524.05 +/- 24.75); assay type: functional

Sequence of RAC-alpha serine/threonine-protein kinase (Homo sapiens, UniProt P31749) (P31749 whole entry): as the sequence (P31750 whole entry) above, with N2S, S50A, A100T, R112K, T117E, T389K, N410G, D415H counted along it

| SMILES | IC50 [1] [µM] | fold change (FC) [2] | fold change (FC) [3] | inhibition (INH) [4] | inhibition (INH) [5] | IC50 [6] [µM] | fold change (FC) [7] | fold change (FC) [8] |
| --- | --- | --- | --- | --- | --- | --- | --- | --- |
| Cc1cc(C(=O)N[C@@H]2CNCC[C@H]2c2ccc(F)c(F)c2)ccc1-c1c(Cl)cnn1C.Cl | 0.299 | 1.55 | 12.2 | Not Active | Not Active | – | – | – |
| CCCc1cc(C(=O)N[C@@H]2CNCC[C@H]2c2ccc(F)c(F)c2)ccc1-c1c(Cl)cnn1C.Cl | 0.245 | 1.92 | 3.47 | – | – | – | – | – |
| Cl.Cn1nccc1-c1ccc(C(=O)N[C@@H]2CNCC[C@H]2c2ccc(F)c(F)c2)cc1C1CC1 | 0.157 | 3.31 | 1.38 | – | – | > 1 | – | – |
| Cl.O=C(N[C@@H]1CNCC[C@H]1c1ccc(F)c(F)c1)c1c(F)cc(-c2[nH]ncc2Br)cc1F | > 1 | 2.38 | 19.79 | – | – | – | – | – |
| CC(C)c1cc(C(=O)N[C@@H]2CNCC[C@H]2c2ccc(F)c(F)c2)ccc1-c1ccnn1C.Cl | 0.555 | 2.06 | 2.06 | – | – | > 1 | – | – |
| Cl.Cn1ncc(Cl)c1-c1ccc(C(=O)N[C@@H]2CNCC[C@H]2c2ccc(F)c(F)c2)cc1C1CC1 | 0.143 | 2.62 | 3.51 | – | – | – | – | – |
| Cc1cc(C(=O)N[C@@H]2CNCC[C@H]2c2ccc(F)c(F)c2)ccc1-c1c(Br)cnn1C.Cl | 0.341 | 2.62 | 4.87 | – | – | > 1 | – | – |
| Cc1cc(C(=O)N[C@@H]2CNCC[C@H]2c2ccc(F)c(F)c2)ccc1-c1ccnn1C.Cl | 0.102 | 8.13 | 14.49 | – | – | – | 0.82 | 313.7 |
| CCCc1cc(C(=O)N[C@@H]2CNCC[C@H]2c2ccc(F)c(F)c2)ccc1-c1c(Br)cnn1C.Cl | > 1 | 1.42 | 3.86 | – | – | > 1 | – | – |
| CCCc1cc(C(=O)N[C@@H]2CNCC[C@H]2c2ccc(F)c(F)c2)ccc1-c1ccnn1C.Cl | 0.092 | 1.43 | 3.84 | – | – | – | – | – |
| Cn1nccc1-c1ccc2c(c1)CN([C@@H]1CNCC[C@H]1c1ccc(F)c(F)c1)C2=O | 0.0043 | 2.24 | 3.59 | – | – | – | – | – |
| Cl.O=C(N[C@@H]1CNCC[C@H]1c1ccc(F)c(F)c1)c1c(F)cc(-c2ccn[nH]2)cc1Cl | 0.0692 | 1.39 | 1.94 | – | – | – | – | – |
| Cn1ncc(Br)c1-c1ccc2c(c1)CN([C@@H]1CNCC[C@H]1c1ccc(F)c(F)c1)C2=O | 0.0016 | 1.93 | 7.52 | – | – | 0.0027 | – | – |
| CC(C)c1cc(C(=O)N[C@@H]2CNCC[C@H]2c2ccc(F)c(F)c2)ccc1-c1c(Br)cnn1C.Cl | > 1 | 2.6 | 4.49 | – | – | > 1 | – | – |
| Cn1ncc(Cl)c1-c1ccc(C(=O)N[C@@H]2CNCC[C@H]2c2ccc(F)c(F)c2)cc1 | 0.005 | 2.41 | 8.63 | – | – | – | – | – |
| Cl.O=C(N[C@@H]1CNCC[C@H]1c1ccc(F)c(F)c1)c1c(F)cc(-c2ccn[nH]2)cc1F | 0.028 | 1.72 | 8.14 | – | – | > 1 | – | – |
| CC(C)c1cc(C(=O)N[C@@H]2CNCC[C@H]2c2ccc(F)c(F)c2)ccc1-c1c(Cl)cnn1C.Cl | 0.0693 | 2.77 | 5.03 | – | – | – | – | – |
